The text below walks through data of US11072806B2, “Gadusol production” (Oregon State University, priority 2018, dated 2021).

Like-named read-outs stand apart in the source and are kept apart here.

Data set [1] has as its system wild-type RAD1 strain (S288c). As to the kind of experiment: UVB irradiation of wild-type (RAD1) yeast strain suspended in gadusol-containing supernatant. Format: cell-based, S. cerevisiae. The following applies: higher doses of UVB; cells in 9-fold concentrated supernatant. An excerpt:
(§1) While it would be possible to harvest gadusol from naturally occurring sources, this would not be economical for producing the quantities of gadusol needed for commercially relevant sunscreen products. To overcome this and other problems, the inventors have developed methods and compositions that allow for the high efficiency production of gadusol in microorganism host cells, such as yeast. Expressing the biosynthetic genes for gadusol in microorganisms, such as yeast, provides an opportunity to leverage in-depth knowledge of yeast biochemistry to generate a sustainable process. […] The mutant was cultured in YNB+2% glucose supplemented with leucine and lysine at 30° C. for 2 days. […] In 20 ml cultures (n=3), the recombinant yeast culture produced approximately 20 mg/I of gadusol after 5 days (FIG. 34). […] Large-scale production allows for the use of gadusol in pharmaceuticals, formulations, cosmetics or dietary formulations and products. By way of example, formulations may include pills/capsules, creams, lotions, or the like. In embodiments, the present disclosure provides for a synthetic gadusol having UV-protective activity. […] Cells were then irradiated with UVB and spotted in 3 μl aliquots (n=4) onto YEPD plates which were incubated at 30° C. for 24 h. […]

The conditions of data set [2]: in vitro; cited from earlier work.
Data set [3] relates to rad1Δ yeast mutant. As to the kind of experiment: UVB irradiation of UVB-sensitive rad1Δ yeast mutant suspended in gadusol-containing supernatant. Format: cell-based, S. cerevisiae. The settings on record: cells at 10^7 cells/mL in 9-fold concentrated supernatant, UVB (302 nm), spotted on YEPD, 24 h at 30° C.
Text: as §1

The conditions of data set [4]: cited from earlier work; for λmax: enol form at lower pH, enolate form at neutral and basic pH.
[5] abbreviates: Arbeloa et al. 2011, at respective absorbance maxima.

For `COC1=C(O)CC(O)(CO)C(O)C1=O` (stereo not shown) [gadusol, 3,5,6-trihydroxy-5-hydroxymethyl-2-methoxycyclohex-2-en-1-one], in data set [1], the “UVB tolerance of wild-type (RAD1) strain” value is on record as “increases UVB tolerance”. Besides, in data set [2], the antioxidant activity result is listed as “exhibit antioxidant activity in vitro”. Besides, in data set [3], the “UVB sensitivity of rad1Δ yeast mutant” value is “suppresses the UVB sensitivity”. In addition, the extinction coefficient in data set [4] (setting [5]) is reported as 12,400 M^−1 cm^−1; in data set [4] (pH 7 in 50 mM phosphate, Plack et al. 1981), 21,800 M^−1 cm^−1. The λmax in data set [4] (Plack et al. 1981) is listed as 269 nm.

As to `COC1=C(O)CC(O)(CO)C(O)C1=O` (stereo not shown) [gadusolate], the extinction coefficient in data set [4] (setting [5]) is given as 21,800 M^−1 cm^−1. The “quantum yield of photodecomposition relative to gadusol” value in data set [4] (Arbeloa et al. 2011) is given as 260 times. In data set [4] (compared to gadusol), the photostability entry is reported as “more photostable”. The λmax in data set [4] (Plack et al. 1981) is given as 296 nm.
